According to US20200079765A1, “SUBSTITUTED HETEROARYL PYRROLONES AND SALTS THEREOF AND USE THEREOF AS HERBICIDAL ACTIVE SUBSTANCES” (Bayer CropScience Aktiengesellschaft, priority 2016, published 2020):

Columns and labels:
Lolium rigidum = experiment: Herbicidal pre-emergence action (Experimental Part 2, D); type: in vivo; conditions: pre-emergence (Part 2), scored visually after about 3 weeks
Source text: (§1) Seeds of mono- and dicotyledonous weed plants were placed in plastic pots in sandy loam soil (doubly sown with in each case one species of mono- or dicotyledonous weed plants per pot) and covered with soil. The compounds of the invention, formulated in the form of wettable powders (WP) or as emulsion concentrates (EC), were then applied onto the surface of the covering soil as aqueous suspension or emulsion with addition of 0.5% additive at a water application rate of 600 liters per hectare (converted). After the treatment, the pots are placed in a greenhouse and kept under good growth conditions for the trial plants. After about 3 weeks, the effect of the preparations was scored visually in comparison with untreated controls as percentages. For example, 100% activity=the plants have died, 0% activity=like control plants. Tables D1 to D8 below show the effects of selected compounds of the general formula (I) according to Tables I.1 to I.116 on various harmful plants and an application rate corresponding to 1280 g/ha or 320 g/ha, which were obtained by the experimental procedure mentioned above.

Setaria viridis [1] = experiment: as above; type: in vivo; conditions: pre-emergence (Part 2), scored visually after about 3 weeks
Source text: as §1

Poa annua [2] = experiment: as above; type: in vivo; conditions: pre-emergence (Part 2), scored visually after about 3 weeks
Source text: as §1

Echinochloa crus-galli [3] = experiment: as above; type: in vivo; conditions: pre-emergence (Part 2), scored visually after about 3 weeks
Source text: as §1

Amaranthus retroflexus [4] = experiment: as above; type: in vivo; conditions: pre-emergence (Part 2), application rate 1280 g/ha, scored visually after about 3 weeks
Source text: as §1

Stellaria media [5] = experiment: as above; type: in vivo; conditions: pre-emergence (Part 2), scored visually after about 3 weeks
Source text: as §1

Matricaria inodora [6] = experiment: as above; type: in vivo; conditions: pre-emergence (Part 2), scored visually after about 3 weeks
Source text: as §1

Abutilon theophrasti [7] = experiment: as above; type: in vivo; conditions: pre-emergence (Part 2), application rate 320 g/ha, scored visually after about 3 weeks
Source text: as §1

photosystem II (PS II) = target: T1, photosystem II (PS II) (Spinacia oleracea, UniProt P69560); experiment: Measurement of the PS II activity in thylakoid membranes (DCPIP reduction, Experimental Part 3, Table E1); type: biochemical; conditions: spinach thylakoid membranes
T1 construct: the chloroplasts were osmotically ruptured and the thylakoid membranes were then obtained by centrifugation; from tissue; host or cells: thylakoid membranes from fresh spinach leaves
Procedure: Cooled fresh spinach leaves were comminuted and homogenized in 50 mM phosphate buffer, pH 6.8. 10 mM KCl, 0.34 M sucrose (sucrose buffer) (blender, 1 g of plant material/ml). The homogenate was subsequently filtered through 4 layers of Miracloth and the chloroplasts were isolated by centrifugation, i.e. 10 min of centrifugation at 4400×g (4° C.). The sediment was suspended in 25 ml of sucrose buffer and re-centrifuged for 10 min at 4400×g (4° C.). The sediment was then suspended in 40 ml of 50 mM phosphate buffer, pH 6.8, 10 mM KCl, without sucrose. In this step, the chloroplasts were osmotically ruptured and the thylakoid membranes were then obtained by centrifugation (10 min, 4400×g, 4° C.). The membrane sediment was finally suspended in about 20 ml of 50 mM phosphate buffer, pH 6.8, 10 mM KCl. Following protein determination and activity determination, the membrane suspension was divided into aliquots and frozen in liquid nitrogen. The aliquots were stored at −80° C. Under these conditions, the photosystem II preparation was storage stable for at least three months. The activity determination of photosystem II (PS II) was then carried out using the following test principle: The electron transfer from PS II to an artificial electron acceptor, 2,6-dichlorophenolindophenol (DCPIP), was measured with exposure to light. The concentration of the blue oxidized form of DCPIP was determined spectrophotometrically at wavelength λ=595 nm. […] The activity determination was carried out in microtiter plates (96 cavities) in a reaction volume of 200 μl. Here, 155 μl of dilute membrane suspension were initially charged in 50 mM of phosphate buffer, pH 6.8, 10 mM KCl. Depending on the activity of the PS II preparation, the dilution was adjusted such that the measurement of the decrease in absorption (λ=595 nm) was linear for at least 10 min. In each case 5 μl solution of the test compounds of a concentration of 100 μM in DMSO were added to the enzyme suspension; controls contained 5 μl DMSO; the final concentration of DMSO in the reaction batch was thus 2.5% (v/v); this concentration had no adverse effect on the enzymatic activity. On each microtiter plate, a known PS II inhibitor, for example metribuzin, was used as standard, which allowed the quality of the PS II test to be assessed. The reaction was started by addition of 40 μl DCPIP solution (600 μM in distilled water); the final concentration of DCPIP was 120 μM. Measurement of absorption was carried out over a period of 10 min at 22° C. and with exposure to light. Using metribuzin as comparative substance, the results for the efficacy of the compounds of the general formula (I) at 100 μM are stated in the table below using the following classification: ++++ (inhibition≥90%), +++ (90%>inhibition≥70%), ++ (70%>inhibition≥50%), + (50%>inhibition≥30%).
Effects of selected compounds of the general formula (I) according to the following table E1: […]

Setaria viridis [8] = experiment: Herbicidal post-emergence action (Experimental Part 2, C); type: in vivo; conditions: post-emergence (Part 2), rated visually after about 3 weeks
Procedure: (§2) Seeds of mono- and dicotyledonous weed plants were placed in plastic pots in sandy loam soil (doubly sown with in each case one species of mono- or dicotyledonous weed plants per pot), covered with soil and cultivated in a greenhouse under controlled growth conditions. 2 to 3 weeks after sowing, the test plants were treated at the one-leaf stage. The compounds of the invention, formulated in the form of wettable powders (WP) or as emulsion concentrates (EC), were applied onto the green parts of the plants as aqueous suspension or emulsion with addition of 0.5% additive at a water application rate of 600 liters per hectare (converted). After the test plants had been kept in the greenhouse under optimum growth conditions for about 3 weeks, the activity of the preparations was rated visually in comparison to untreated controls. For example, 100% activity=the plants have died, 0% activity=like control plants. Tables C1 to C8 below show the effects of selected compounds of the general formula (I) according to Tables I.1 to I.116 on various harmful plants and an application rate corresponding to 1280 g/ha or 320 g/ha, which were obtained by the experimental procedure mentioned above.

Poa annua [9] = experiment: as above; type: in vivo; conditions: post-emergence (Part 2), rated visually after about 3 weeks
Procedure: as §2

Echinochloa crus-galli [10] = experiment: as above; type: in vivo; conditions: post-emergence (Part 2), application rate 1280 g/ha, rated visually after about 3 weeks
Procedure: as §2

Amaranthus retroflexus [11] = experiment: as above; type: in vivo; conditions: post-emergence (Part 2), rated visually after about 3 weeks
Procedure: as §2

Stellaria media [12] = experiment: as above; type: in vivo; conditions: post-emergence (Part 2), rated visually after about 3 weeks
Procedure: as §2

Matricaria inodora [13] = experiment: as above; type: in vivo; conditions: post-emergence (Part 2), rated visually after about 3 weeks
Procedure: as §2

Abutilon theophrasti [14] = experiment: as above; type: in vivo; conditions: post-emergence (Part 2), rated visually after about 3 weeks
Procedure: as §2

Effect (inhibition of PS II activity) (photosystem II (PS II))	Structure (SMILES)	Setaria viridis, herbicidal activity (Setaria viridis [1]; application rate 320 g/ha) [%]	Poa Annua, herbicidal activity (Poa annua [2]; application rate 1280 g/ha) [%]	Amaranthus retroflexus, herbicidal activity (Amaranthus retroflexus [4]) [%]	Stellaria media, herbicidal activity (Stellaria media [5]; application rate 1280 g/ha) [%]	Matricaria inodora, herbicidal activity (Matricaria inodora [6]; application rate 1280 g/ha) [%]	Abutilon theophrasti, herbicidal activity (Abutilon theophrasti [7]) [%]	Setaria viridis, herbicidal activity (Setaria viridis [8]; application rate 1280 g/ha) [%]	Poa Annua, herbicidal activity (Poa annua [9]; application rate 1280 g/ha) [%]	Echinochloa crus-galli, herbicidal activity (Echinochloa crus-galli [10]) [%]	Amaranthus retroflexus, herbicidal activity (Amaranthus retroflexus [11]; application rate 1280 g/ha) [%]	Stellaria media, herbicidal activity (Stellaria media [12]; application rate 320 g/ha) [%]	Matricaria inodora, herbicidal activity (Matricaria inodora [13]; application rate 320 g/ha) [%]	Setaria viridis, herbicidal activity (Setaria viridis [1]; application rate 1280 g/ha) [%]	Stellaria media, herbicidal activity (Stellaria media [5]; application rate 320 g/ha) [%]	Poa Annua, herbicidal activity (Poa annua [9]; application rate 320 g/ha) [%]	Abutilon theophrasti, herbicidal activity (Abutilon theophrasti [14]; application rate 320 g/ha) [%]	Lolium rigidum, herbicidal activity (Lolium rigidum; application rate 1280 g/ha) [%]	Poa Annua, herbicidal activity (Poa annua [2]; application rate 320 g/ha) [%]	further results
++++ (inhibition≥90%)	CC1=CC(=O)N(c2noc(C(C)(C)C)c2C)C1O (stereo not drawn) [I.1-177]	100	100	90	100	100	100	100	100	100	100	100	100	–	–	–	–	–	–	Lolium rigidum, herbicidal activity (Lolium rigidum; application rate 320 g/ha): 90%; Echinochloa crus-galli, herbicidal activity (Echinochloa crus-galli [3]; application rate 1280 g/ha): 100%; Abutilon theophrasti, herbicidal activity (Abutilon theophrasti [14]; application rate 1280 g/ha): 100%
++++ (inhibition≥90%)	CC1=CC(=O)N(c2cc(C(F)(F)F)c(Cl)cn2)C1O (stereo not drawn) [I.1-451, 5-Hydroxy-4-methyl-1-(5-chloro-4-trifluoromethylpyridin-2-yl)-1,5-dihydro-2H-pyrrol-2-one]	–	90	90	–	100	–	–	–	100	100	100	90	100	100	100	100	–	–	–
–	CCC(=O)OC1C(C)=CC(=O)N1c1cc(C(F)(F)F)c(Cl)cn1 (stereo not drawn) [I.5-451, 5-Ethylcarbonyloxy-4-methyl-1-(5-chloro-4-trifluoromethylpyridin-2-yl)-1,5-dihydro-2H-pyrrol-2-one]	100	–	–	100	90	–	90	100	–	–	–	–	–	–	–	100	90	100	Stellaria media, herbicidal activity (Stellaria media [12]; application rate 1280 g/ha): 100%; Matricaria inodora, herbicidal activity (Matricaria inodora [13]; application rate 1280 g/ha): 90%
+++ (90%>inhibition≥70%)	CC1=CC(=O)N(c2onc(C(C)(C)C)c2C)C1O (stereo not drawn) [I.1-300]	–	–	90	–	–	100	–	–	100	–	100	100	100	100	100	100	90	90	Echinochloa crus-galli, herbicidal activity (Echinochloa crus-galli [3]; application rate 320 g/ha): 100%; Matricaria inodora, herbicidal activity (Matricaria inodora [6]; application rate 320 g/ha): 100%; Setaria viridis, herbicidal activity (Setaria viridis [8]; application rate 320 g/ha): 100%; Amaranthus retroflexus, herbicidal activity (Amaranthus retroflexus [11]; application rate 320 g/ha): 100%
